Read-outs that look alike come from different tables or passages of the source.
What was measured:
[1] = test system: Corn
[2] = test system: Corn; experiment: Greenhouse test Procedure VII: biocide and antidote in furrow, herbicide POE (Examples 39-42, 48-50, 56-58; Tables 38-41, 47-49, 55-57); format: in vivo; conditions: Antidote + Biocide No. 1 in furrow
Method in brief: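 Corn seed was planted in greenhouse pots, with COUNTER 15G insecticide plus antidote granules applied in-furrow (e.g. 1.1 + 0.37 mg a.i./cm, or 227 g/305 m with acetone-applied safeners). About five days later, herbicides in water with 0.25% v/v X-77 were track-sprayed post-emergence at 187 L/ha. Plant response was scored eight days afterward, with two to four replicates.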

[3] = test system: Corn; conditions: for activity in reducing corn injury: primisulfuron POE + biocides PPI, Tables 8-10
[4] = MON-12000 + OP insecticides, Examples 20-23
[5] = XRD-498 + OP insecticides, Examples 24-27
[6] = Herbicide No. 1 0.14 Kg/Ha POE, 8 days after POE
[7] = Herbicide No. 4 0.17 Kg/Ha POE, 8 days after POE
[8] = Herbicide No. 5 0.07 Kg/Ha POE, 8 days after POE
[9] = Herbicide No. 7 0.56 Kg/Ha POE, 8 days after POE
[10] = Herbicide No. 9 0.009 Kg/Ha POE
[11] = Herbicide No. 10 0.002 Kg/Ha POE, 8 days after POE
[12] = Herbicide No. 15 0.0044 Kg/Ha POE, 8 days after POE
[13] = Herbicide No. 16 0.01 Kg/Ha POE
[14] = Herbicide No. 18 0.0044 Kg/Ha POE
[15] = Herbicide No. 19 0.28 Kg/Ha POE
[16] = Herbicide No. 21 0.14 Kg/Ha POE
[17] = Herbicide No. 23 0.0006 Kg/Ha POE
[18] = ACCENT POE + OP insecticides PPI, Tables 11-14
[19] = Antidote 4.48 + Biocide No. 1 8.96 Kg/Ha PPI, Herb. No. 8 0.07, 5 DAP, before herbicide application
[20] = Antidote 4.48 + Biocide No. 1 8.96 Kg/Ha PPI, Herb. No. 8 0.07 POE, 13 DAP
[21] = Antidote 4.48 + Biocide No. 1 8.96 Kg/Ha PPI, Herbicide No. 7 0.28 POE, 13 days after planting
[22] = Herb. […], 5 DAP, before herbicide application
[23] = Table 14: Herbicide No. 7 (ACCENT) 0.84 Kg/Ha POE + Biocide No. 2 8.96 Kg/Ha PPI + antidote 4.48 Kg/Ha PPI, 13 days after planting, 8 days after herbicide
[24] = […], 13 days after planting, 8 days after herbicide
[25] = […], observed 10 days after herbicide application

| Structure (SMILES) | safening activity [1, 4] | safening activity [1, 5] | % Inhibition Corn [2, 6] | % Inhibition Corn [2, 7] | % Inhibition Corn [2, 8] | % Inhibition Corn ([2]; Herbicide No. 6 0.01 Kg/Ha POE) | % Inhibition Corn [2, 9] | % Inhibition Corn [2, 10] | % Inhibition Corn [2, 11] | % Inhibition Corn [2, 12] | % Inhibition Corn [2, 13] | % Inhibition Corn [2, 14] | % Inhibition Corn [2, 15] | % Inhibition Corn [2, 16] | % Inhibition Corn [2, 17] | safener activity [3, 18] | % Inhibition 5 DAP Corn [3, 19] | % Inhibition 13 DAP Corn [3, 20] | % Inhibition Corn [3, 21] | % Inhibition 5 DAP Corn [3, 22] | also measured |
| --- | --- | --- | --- | --- | --- | --- | --- | --- | --- | --- | --- | --- | --- | --- | --- | --- | --- | --- | --- | --- | --- |
| COC(=O)COC(c1ccccc1)c1ccccc1 [compound 12] | Safening activity was observed | Safening activity was observed | 0% | 0% | 0% | 0% | 5% | 0% | 5% | 0% | 15% | 10% | 0% | 5% | 5% | most active | 20% | 15% | 20% | 0% | % Inhibition Corn ([1]; […], PPI, 14 days after PPI (Table 34)): 25%; reducing corn injury, comparison ([1]; in vivo): superior to No. 28; % Inhibition Corn [3, 23]: 0%; % Inhibition Corn [3, 24]: 0%; % Inhibition Corn ([3]; […], observed 8 days later (Table 32)): 0%; % Inhibition Corn ([3]; […], observed 8 days later (Table 33)): 40%; % Inhibition Corn [3, 25]: 60%; % Inhibition 5 DAP Corn ([3]; in vivo): 20%; % Inhibition 13 DAP Corn ([3]; in vivo): 20%; activity in reducing corn injury [3]: most active |
| N#CCOc1ccc(Cl)c2cccnc12 [compound 33] | Safening activity was observed | Safening activity was observed | 0% | 5% | 30% | 20% | 10% | 5% | 5% | 15% | 30% | 10% | 10% | 20% | 15% | most active | 25% | 20% | 15% | 0% | safening ([1]; malathion + Herbicides 1, 21, 18, Example 54): moderate to high degrees of safening; safener activity ([3]; PURSUIT POE + insecticides PPI, Tables 15-18): most active; % Inhibition Corn [3, 23]: 0%; % Inhibition Corn [3, 24]: 10%; % Inhibition Corn [3, 25]: 40%; % Inhibition 5 DAP Corn ([3]; in vivo): 30%; % Inhibition 13 DAP Corn ([3]; in vivo): 20%; effect on corn before application of the herbicide ([3]; in vivo): Some injury; activity in reducing corn injury [3]: most active |
